Like-named read-outs stand apart in the source and are kept apart here.
Assays:
[1] = Conversion rate (CR) assay with fluorescamine; format: physicochemical
How it was run: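 In the conversion assay, unconverted peptide passing a 3 kDa membrane at 4 °C was labelled with fluorescamine alongside unfiltered PNF, both in DMSO, and read at 365/470 nm after 20 min at room temperature. β-sheet content relied on ATR FT-IR of lyophilized fibril powder.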

TZM-bl cells = format: cell-based; conditions: CellTiter-Glo, mean of n = 3 replicates; for viability 0.26 µM: peptide 0.26 µM; for viability 1.3 µM: peptide 1.3 µM; for viability 6.5 µM: peptide 6.5 µM
How it was run: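 Viability of TZM-bl cells (10,000 seeded) after 3 days with serially diluted peptides, measured by CellTiter-Glo luminescence. Values normalized to 100% metabolic activity; triplicates.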

[2] = ref sieste 2021 or Schilling2019; cited from earlier work
From the text: Supplement 41467_2023_40663_MOESM7_ESM.zip/FigS17.csv, table | column: Conversion Rate / % ( from sieste 2021 or Schilling2019)

In the case of CKFKFQF [BL4], the “Conversion Rate / %” value [1] is reported as 96.11%, the “Conversion Rate / %” value ([1]; fluorescamine assay) is reported as 96.11% and the “viability 0.26 µM” value (TZM-bl cells) is reported as 97.07. The “viability 1.3 µM” value (TZM-bl cells) was 99.36, the “viability 6.5 µM” value (TZM-bl cells) was 84.09 and the “Conversion Rate / % ( from sieste 2021 or Schilling2019)” value [2] was 95%.

For KFKFQF [JJA6], the “Conversion Rate / %” value [1] was 51.79%, the “Conversion Rate / %” value ([1]; fluorescamine assay) was 51.79% and the “viability 0.26 µM” value (TZM-bl cells) was 101.2. The “viability 1.3 µM” value (TZM-bl cells) was 100.3, the “viability 6.5 µM” value (TZM-bl cells) was 102.1 and the “Conversion Rate / % ( from sieste 2021 or Schilling2019)” value [2] was 83%.

For CSISIQI [TM141], the “Conversion Rate / %” value ([1]; fluorescamine assay) was 76.63%, the “viability 0.26 µM” value (TZM-bl cells) was 98.15 and the “viability 1.3 µM” value (TZM-bl cells) was 96.88. For the same substance, the “viability 6.5 µM” value (TZM-bl cells) was 81.12 and the “Conversion Rate / % ( from sieste 2021 or Schilling2019)” value [2] was 82%.

Reference: article PMC10447463, “Data-mining unveils structure–property–activity correlation of viral infectivity enhancing self-assembling peptides” (Nature Communications, 2023)
